Experimental findings from publication PMC6736837, “^18F-labelled triazolyl-linked argininamides targeting the neuropeptide Y Y1R for PET imaging of mammary carcinoma” (Scientific Reports, 2019) are described below.

The structures appear in SMILES notation.

A short description of data set [1]: Biodistribution in healthy mice. It is filed as in vivo, mouse. The following applies: for kidney uptake: at 30 and 90 min p.i. On the procedure: Biodistribution studies were conducted using female NMRI outbred mice (HsdWin:NMRI) purchased from Envigo (Horst, The Netherlands). Mice were kept in groups of four to five animals in individually ventilated cages in a twelve hours dark/light cycle with unlimited access to water and standard chow. At the age of eight to nine weeks six animals per radiotracer were injected with 2–4 MBq of the respective radiotracer under isoflurane anesthesia. Mice were sacrificed by cervical dislocation 30 or 90 min p.i. of the radiotracer. Blood as well as the organs/tissues lung, liver, kidneys, heart, spleen, brain, muscle, intestines, gall bladder and bones were harvested and analysed in the γ-counter. Samples were weighed and radioactivity in different tissues was calculated as percentage of the total injected dose per gram tissue (%ID/g).

Another data set has as its system MCF-7-Y1 cells. Description: Cellular accumulation assay in MCF-7-Y1 cells. Format: cell-based, human. As to conditions: nonspecific binding with 10 µM BIBP3226; [^18F]12 at 30 and 60 min. On the procedure:
MCF-7-Y1 is a subclone that originated in Prof. […] MCF-7-Y1 cells were cultivated in MEM Earle´s liquid medium with 2.2 g/L NaHCO3 (Merck Biochrom, Darmstadt) containing 10% FBS and 1% L-glutamine. All cells were cultured under sterile conditions in a humidified atmosphere containing 5% CO2 at 37 °C. Cells were routinely passaged twice a week.
The cellular accumulation of Y1R radioligands by MCF-7-Y1 cells was measured: On the day prior to the experiment, 300,000 cells per well were seeded into 24-well plates (Greiner Bio-One). Attached cells were washed twice with cold PBS and 450 µL of assay medium (cell culture medium containing 0.1% BSA) were added to the cells for total binding. For non-specific binding, 400 µL of assay medium and 50 µL of medium containing 10 µM BIBP3226 were added. Finally, 50 µL of medium containing approx. 15 kBq of the respective radiotracer were added to each well, and cells were incubated at 37 °C for 10, 30, 60 or 90 min. After incubation, cells were washed with 500 µL of ice-cold PBS and lysed with 600 µL of warm 1 M NaOH. The lysed cells were transferred to counting tubes and analysed in the γ-counter (Wallac Wizard, Perkin Elmer, Waltham, MA, USA). Separate tubes containing 50 µL of medium with the radiotracer (approx. 15 kBq) were analysed as reference samples. Experiments were performed in sextuplicate (n = 6).

For `N/C(=N/C(=O)NCc1cn([C@@H]2OC(C[18F])[C@@H](O)C(O)C2O)nn1)NCCC[C@@H](NC(=O)C(c1ccccc1)c1ccccc1)C(=O)NCc1ccc(O)cc1` (stereo partly drawn) [[^18F]11, (2R)‐5‐{[(1Z)‐Amino({[({1‐[(2R,5S)‐6‐([^18F]fluoromethyl)‐3,4,5‐trihydroxyoxan‐2‐yl]‐1H‐1,2,3‐triazol‐4‐yl}methyl)carbamoyl]imino})methyl]amino}‐2‐(2,2‐diphenylacetamido)‐N‐[(4‐hydroxyphenyl)-methyl]pentanamide], in data set [1] (after 90 min), the “uptake in the gall bladder” value is on record as “up to 600 %ID/g”. Also, the kidney uptake entry in data set [1] is “less than 5 %ID/g”. Besides, the “specific accumulation in MCF-7-Y1 cells (total radioactivity in each well = 100%)” value in the data set on MCF-7-Y1 cells is recorded as “almost no specific binding”.

`N/C(=N/C(=O)NCc1cn(CCOCCOCCOCC[18F])nn1)NCCC[C@@H](NC(=O)C(c1ccccc1)c1ccccc1)C(=O)NCc1ccc(O)cc1` [[^18F]13, (2R)‐5‐{[(1Z)‐Amino[({[1‐(2‐{2‐[2‐(2‐[^18F]fluoroethoxy)ethoxy]ethoxy}ethyl)‐1H‐1,2,3‐triazol‐4‐yl]methyl}carbamoyl)imino]methyl]amino}‐2‐(2,2‐diphenylacetamido)‐N‐[(4‐hydroxyphenyl)-methyl]pentanamide]: the kidney uptake entry in data set [1] is “less than 5 %ID/g”. For the same molecule, the “specific accumulation in MCF-7-Y1 cells (total radioactivity in each well = 100%)” value in the data set on MCF-7-Y1 cells came to 1%.
